Experimental data: patent US7659293B2, “α-Amino-N-hydroxy-acetamide derivatives” (Novartis AG, priority 2001, dated 2010)
Where a name gives a salt, the structure may show the parent alone.

Target: T1, MMP2 (gelatinase A) (Homo sapiens, UniProt P08253)
T1 construct: made in house; host or cells: baculovirus (pFAST BAC 1) in Tn insect cells, secreted
T1 sequence (P08253 110-660): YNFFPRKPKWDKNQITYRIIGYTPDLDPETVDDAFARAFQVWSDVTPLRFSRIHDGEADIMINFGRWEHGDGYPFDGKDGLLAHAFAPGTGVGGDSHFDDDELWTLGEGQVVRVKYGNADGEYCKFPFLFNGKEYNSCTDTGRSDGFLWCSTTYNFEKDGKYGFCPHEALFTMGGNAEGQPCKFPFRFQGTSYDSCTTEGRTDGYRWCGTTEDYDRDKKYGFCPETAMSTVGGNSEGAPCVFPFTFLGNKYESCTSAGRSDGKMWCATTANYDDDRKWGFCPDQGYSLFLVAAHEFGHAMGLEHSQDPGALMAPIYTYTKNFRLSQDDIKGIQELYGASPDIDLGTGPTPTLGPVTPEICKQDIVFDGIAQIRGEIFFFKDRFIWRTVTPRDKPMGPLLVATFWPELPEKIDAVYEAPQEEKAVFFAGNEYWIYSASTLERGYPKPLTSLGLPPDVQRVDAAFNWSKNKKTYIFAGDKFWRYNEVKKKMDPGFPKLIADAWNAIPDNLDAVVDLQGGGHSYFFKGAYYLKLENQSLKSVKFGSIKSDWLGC
Assay: MMP2 (gelatinase A) fluorogenic substrate inhibition assay
Format: biochemical
Conditions: mean ± SEM of three independent experiments
Method: The inhibitory activities of compounds of formula I on MT1-MMP, MMP1 (collagenase 1) and MMP2 (gelatinase A) can be determined as follows:
Stock solutions of substrate (MCA-Pro-Leu-Gly-Leu-Dpa-Ala-Arg-NH2 (SEQ ID NO: 1), C. G. Knight, et al, FEBS lett., 296, 263-266, (1992)), are prepared in 100% DMSO at a concentration 1.0 mM.
Stock solutions of inhibitors are prepared in 100% DMSO. The inhibitor is diluted into the assays from a solution in 100% DMSO, and controls substitute an equal volume of DMSO so that the final DMSO concentration from inhibitor and substrate dilutions in all assays is 6.0%. Assays are performed in assay buffer (150 mM NaCl, 10 mM CaCl2, 50 mM Tris-Cl pH7.5, 0.05% Brij-35) containing 6.0% DMSO once the substrate and inhibitor are diluted into it. The substrate concentration used in the assays is […]. The test is carried out at 37° C. The fluorescence changes are monitored using an excitation wavelength of 320 nm and an emission wavelength of […]. The reaction mixture is added in duplicate to appropriate wells of a 96 well microfluor plate. The reaction mixture is preincubated with the inhibitor for 30 min, the reaction is started by the addition of MMP enzyme and the fluorescence intensity is measured for 10 min. A time point that is on a linear part of the curve is chosen to determine the activity. […]

CN(C)c1ccc(CN(CC(=O)NO)S(=O)(=O)c2ccc(OCC3CC3)cc2)cc1 [Example 2, 2-[(4-Cyclopropylmethoxy-benzenesulfonyl)-(4-dimethylamino-benzyl-amino]-N-hydroxy-acetamide HCl salt]
IC50: 3.29 ± 0.49 nM
